Measured values published in US8748471B2, “2-alkyl-cycloalk(en)yl-carboxamides” (priority 2004, dated 2014).
Where two headings read alike, the source gives them in different places.

Assays:
[1] = log P determination by HPLC on reverse-phase column (C 18), acidic range pH 2.3 (EEC Directive 79/831 Annex V. A8); type: physicochemical; details: for chromatographic logP: reverse-phase HPLC column (C 18)
Experimental: The stated log P values were determined in accordance with EEC Directive 79/831 Annex V. A8 by HPLC (High Performance Liquid Chromatography) on a reverse-phase column (C 18). Temperature: 43° C. Mobile phases for the determination in the acidic range (pH 2.3): 0.1% aqueous phosphoric acid, acetonitrile; linear gradient from 10% acetonitrile to 90% acetonitrile. Calibration was carried out using unbranched alkan-2-ones (having 3 to 16 carbon atoms) with known log P values (determination of the log P values by the retention times using linear interpolation between two successive alkanones).

Podosphaera leucotricha = test: Podosphaera test (apple)/protective; type: in vivo; details: protective, application rate 100 g/ha, evaluation 10 days after inoculation, 0% = control, 100% = no infection
Experimental: (§1) To produce a suitable preparation of active compound, 1 part by weight of active compound is mixed with the stated amounts of solvents and emulsifier, and the concentrate is diluted with water to the desired concentration.
To test for protective activity, young plants are sprayed with the preparation of active compound at the stated application rate. After the spray coating has dried on, the plants are inoculated with an aqueous spore suspension of Podosphaera leucotricha. The plants are then placed in a greenhouse at about 23° C. and a relative atmospheric humidity of about 70%.
(§2) Evaluation is carried out 10 days after the inoculation. 0% means an efficacy which corresponds to that of the control, whereas an efficacy of 100% means that no infection is observed.

Venturia inaequalis = test: Venturia test (apple)/protective; type: in vivo; details: protective, application rate 100 g/ha, evaluation 10 days after inoculation, 0% = control, 100% = no infection
Experimental: as §1
To test for protective activity, young plants are sprayed with the preparation of active compound at the stated application rate. After the spray coating has dried on, the plants ate inoculated with an aqueous conidia suspension of the apple scab pathogen Venturia inaequalis and then remain in an incubation cabinet as about 20° C. and 100% relative atmospheric humidity for 1 day. The plants are then placed in a greenhouse at about 21° C. and a relative atmospheric humidity of about 90%.
as §2

Puccinia recondita = test: Puccinia test (wheat)/protective; type: in vivo; details: 240 h, protective, application rate 500 g/ha, evaluation 10 days after inoculation, 0% = control, 100% = no infection, read-out: Efficacy in %
Experimental: (§3) To produce a suitable preparation of active compound, 1 part by weight of active compound is mixed with the stated amounts of solvent and emulsifier, and the concentrate is diluted with water to the desired concentration.
To test for protective activity, young plants are sprayed with the preparation of active compound at the stated application rate. After the spray coating has dried on, the plants are sprayed with a conidia suspension of Puccinia recondita. The plants remain in an incubation cabinet at 20° C. and 100% relative atmospheric humidity for 48 hours. The plants are then placed in a greenhouse at a temperature of about 20° C. and a relative atmospheric humidity of 80%.
as §2

Botrytis cinerea = test: Botrytis test (bean)/protective; type: in vivo; details: protective, application rate 500 g/ha, evaluation 2 days after inoculation (size of infected areas), 0% = control, 100% = no infection
Experimental: as §1
To test for protective activity, young plants are sprayed with the preparation of active compound at the stated application rate. After the spray coating has dried on 2 small pieces of agar colonized by Botrytis cinerea are placed onto each leaf. The inoculated plants are placed in a dark chamber at about 20° C. and 100% relative atmospheric humidity.
2 days after the inoculation, the size of the infected areas on the leaves is evaluated. 0% means an efficacy which corresponds to that of the control, whereas an efficacy of 100% means that no infection is observed.

Alternaria solani = test: Alternaria test (tomato)/protective; type: in vivo; details: protective, application rate 750 g/ha, evaluation 7 days after inoculation, 0% = control, 100% = no infection
Experimental: as §3
To test for protective activity, young tomato plants are sprayed with the preparation of active compound at the stated application rate. 1 day after the treatment, the plants are inoculated with a spore suspension of Alternaria solani and then remain at 100% relative atmospheric humidity and 20° C. for 24 h. The plants then remain at 96% relative atmospheric humidity and a temperature of 20° C.
Evaluation is carried out 7 days after the inoculation. 0% means an efficacy which corresponds to that of the control, whereas an efficacy of 100% means that no infection is observed.

[2] = Table 1 (I-c), pH 2.3, HPLC C18, 43° C., main diastereomer or, where several values in a cell, the individual diastereomers
[3] = pH 2.3, Table 1 (I-c), pH 2.3, HPLC C18, 43° C., main diastereomer or, where several values in a cell, the individual diastereomers, read-out: logP
[4] = Table 3 (I-k), pH 2.3, HPLC C18, 43° C., main diastereomer or the individual diastereomers

Row | Structure (SMILES) | logP [1, 2] | also measured
1 | CC(C)(C)CCC1CCCCC1NC(=O)C1=C(C(F)(F)F)OCCS1 (mixture of isomers) [I-c-39] | 4.66 | 
2 | Cn1cc(C(=O)NC2CCCCC2CCC(C)(C)C)c(C(F)(F)F)n1 (mixture of isomers) [I-c-40] | 4.45 | 
3 | Cn1cc(C(=O)NC2CCCCC2CCC(C)(C)C)c(C(F)(F)F)c1 (mixture of isomers) [I-c-41] | 4.88 | 
4 | CC(C)(C)CCC1CCCCC1NC(=O)c1nccnc1Cl (mixture of isomers) [I-c-42] | 4.27 | 
5 | Cc1nc(C(F)(F)F)c(C(=O)NC2CCCCC2CCC(C)C)s1 (mixture of isomers) [I-c-56] | 4.6 | 
6 | CC(C)CCC1CCCCC1NC(=O)c1cn(C)nc1C(F)(F)F (mixture of isomers) [I-c-57] | 4.19 | 
7 | CC(C)CCC1CCCCC1NC(=O)c1cccnc1Cl (mixture of isomers) [I-c-58] | 3.76 | 
8 | Cc1nc(C(F)F)c(C(=O)NC2CCCCC2CCC(C)C)s1 (mixture of isomers) [I-c-59] | 4.46 | 
9 | Cc1nn(C)c(F)c1C(=O)NC1CCCCC1CCC(C)C (mixture of isomers) [I-c-60] | 3.79 | 
10 | CC(C)CCC1CCCCC1NC(=O)c1ccccc1C(F)(F)F (mixture of isomers) [I-c-61] | 4.59 | 
11 | CC(C)CCC1CCCCC1NC(=O)c1cn(C)nc1C(F)F (mixture of isomers) [I-c-62] | 3.95 | 
12 | Cc1nn(C)cc1C(=O)NC1CCCCC1CCC(C)C (mixture of isomers) [I-c-63] | 3.19 | 
13 | CC(C)CCC1CCCCC1NC(=O)C1=C(C(F)(F)F)OCCS1 (mixture of isomers) [I-c-64] | 4.42 | 
14 | Cc1occc1C(=O)NC1CCCCC1CCC(C)C (mixture of isomers) [I-c-65] | 4.28 | 
15 | CC1=C(C(=O)NC2CCCCC2CCC(C)C)SCCO1 (mixture of isomers) [I-c-68] | 4.51 | 
16 | CC(C[Si](C)(C)C)C1CCCCC1NC(=O)c1cn(C)nc1C(F)F (mixture of isomers) [I-k-6] |  | logP ([1]; pH 2.3): 4.56
17 | Cc1nc(C(F)F)c(C(=O)NC2CCCCC2C(C)C[Si](C)(C)C)s1 (mixture of isomers) [I-k-8] |  | logP ([1]; pH 2.3): 5.13
18 | CC(C)CC(C)C1CCCCC1N (stereo not drawn) [2-(1,3-dimethylbutyl)cyclohexanamine] |  | chromatographic logP ([1]; pH 2.3, text of Example 1, pH 2.3, two values = mixture of diastereomers, read-out: log P (pH 2.3)): 4.07
19 | Cc1nn(C)c(F)c1C(=O)NC1CCCCC1C(C)CC(C)C (stereo not drawn) [I-c-1] |  | chromatographic logP [1, 3]: 4.15; Efficacy in % (Podosphaera leucotricha): 88%; Efficacy in % (Venturia inaequalis): 100%; pest or weed control at 500 g/ha (Puccinia recondita): 100%

Row | Structure (SMILES) | logP [1, 2] | also measured
20 | CC(C)CC(C)C1CCCCC1NC(=O)c1cccnc1Cl (stereo not drawn) [I-c-2] | 4.04 | 
21 | Cc1nc(C(F)(F)F)c(C(=O)NC2CCCCC2C(C)CC(C)C)s1 (stereo not drawn) [I-c-3] | 4.71 | chromatographic logP [1, 3]: 4.66; pest or weed control at 500 g/ha (Puccinia recondita): 100%
22 | CC(C)CC(C)C1CCCCC1NC(=O)c1cn(C)nc1C(F)(F)F (stereo not drawn) [I-c-6] | 4.53 | Efficacy in % (Botrytis cinerea): 90%; chromatographic logP [1, 3]: 4.1; Efficacy in % (Venturia inaequalis): 99%; pest or weed control at 500 g/ha (Puccinia recondita): 100%
23 | Cc1ccsc1C(=O)NC1CCCCC1C(C)CC(C)C (stereo not drawn) [I-c-9] | 5.15 | chromatographic logP [1, 3]: 4.73; pest or weed control at 500 g/ha (Puccinia recondita): 100%
24 | CC1=C(C(=O)NC2CCCCC2C(C)CC(C)C)SCCO1 (stereo not drawn) [I-c-10] | 4.83 | chromatographic logP [1, 3]: 4.52; pest or weed control at 500 g/ha (Puccinia recondita): 100%; Efficacy in % (Alternaria solani): 100%
25 | CC(C)CC(C)C1CCCCC1NC(=O)c1cn(C)cc1C(F)(F)F (stereo not drawn) [I-c-11] | 4.83 | Efficacy in % (Botrytis cinerea): 96%; chromatographic logP [1, 3]: 4.45; Efficacy in % (Venturia inaequalis): 90%
26 | Cc1occc1C(=O)NC1CCCCC1C(C)CC(C)C (stereo not drawn) [I-c-12] | 4.58 | chromatographic logP [1, 3]: 4.27; pest or weed control at 500 g/ha (Puccinia recondita): 100%
27 | Cc1nn(C)cc1C(=O)NC1CCCCC1C(C)CC(C)C (stereo not drawn) [I-c-14] | 3.47 | chromatographic logP [1, 3]: 3.18; pest or weed control at 500 g/ha (Puccinia recondita): 100%; Efficacy in % (Alternaria solani): 100%
28 | Cn1cc(C(=O)NC2CCCCC2CCC(C)(C)C)c(C(F)F)n1 (stereo not drawn) [I-c-19] | 4.22 | 
29 | Cc1nc(C(F)F)c(C(=O)NC2CCCCC2CCC(C)(C)C)s1 (stereo not drawn) [I-c-23] | 4.71 | 
30 | Cn1nc(C(F)(F)F)c(C(=O)NC2CCCCC2CCC(C)(C)C)c1F (stereo not drawn) [I-c-24] | 4.72 | 
31 | Cc1occc1C(=O)NC1CCCCC1CCC(C)(C)C (stereo not drawn) [I-c-25] | 4.55 | 
32 | CC1=C(C(=O)NC2CCCCC2C(C)CC(C)C)CCO1 (stereo not drawn) [I-c-26] | 4.06 | 
33 | CC(C)CCC1CCCCC1NC(=O)c1cn(C)cc1C(F)(F)F (stereo not drawn) [I-c-69] | 4.61 | 
34 | CC(C)CCC1CCCCC1NC(=O)c1ccccc1I (stereo not drawn) [I-c-70] | 4.66 | 
35 | CC(C)CCC1CCCCC1NC(=O)c1ccccc1Cl (stereo not drawn) [I-c-71] | 4.54 | 
36 | CC(C)CCC1CCCCC1NC(=O)c1ccsc1I (stereo not drawn) [I-c-72] | 4.8 | 
37 | CC(C)CCC1CCCCC1NC(=O)c1c(C(F)(F)F)nn(C)c1F (stereo not drawn) [I-c-74] | 4.47 | 
38 | CC(C)CCCC1CCCCC1NC(=O)c1cccnc1Cl (stereo not drawn) [I-c-75] | 4.22 | 

Row | Structure (SMILES) | logP [1, 2] | also measured
39 | CC(C)CCCC1CCCCC1NC(=O)c1cn(C)nc1C(F)(F)F (stereo not drawn) [I-c-76] | 4.66 | 
40 | Cc1nn(C)c(Cl)c1C(=O)NC1CCCCC1CCC(C)C (stereo not drawn) [I-c-77] | 4.07 | 
41 | Cc1nc(C(F)F)c(C(=O)NC2CCCCC2CCCC(C)C)s1 (stereo not drawn) [I-c-78] | 4.95 | 
42 | Cc1nc(C(F)(F)F)c(C(=O)NC2CCCCC2CCCC(C)C)s1 (stereo not drawn) [I-c-79] | 5.06 | 
43 | Cn1cc(C(=O)NC2CCCCC2CCC(C)(C)C)c(C(F)F)n1 (stereo not drawn) [I-c-81] | 4.24 | 
44 | Cn1nc(C(F)(F)F)c(C(=O)NC2CCCCC2CCC(C)(C)C)c1F (stereo not drawn) [I-c-82] | 4.72 | 
45 | CC(C)CCCC1CCCCC1NC(=O)c1cn(C)nc1C(F)F (stereo not drawn) [I-c-83] | 4.40 | 
46 | Cc1nn(C)c(F)c1C(=O)NC1CCCCC1CCCC(C)C (stereo not drawn) [I-c-84] | 4.30 | 
47 | CC(C)CCCC1CCCCC1NC(=O)c1cn(C)cc1C(F)(F)F (stereo not drawn) [I-c-86] | 5.05 | 
48 | CC(C)(C)CCC1CCCCC1NC(=O)c1sccc1C(F)(F)F (stereo not drawn) [I-c-95] | 5.03 | 
49 | CC(C)CC(C)C1CCCCC1NC(=O)c1sccc1C(F)(F)F (stereo not drawn) [I-c-96] | 5.03 | 
50 | CC(C)(C)CCC1CCCCC1NC(=O)c1ccsc1C(F)(F)F (stereo not drawn) [I-c-97] | 4.87 | 
51 | CC(C)CC(C)C1CCCCC1NC(=O)c1ccsc1C(F)(F)F (stereo not drawn) [I-c-98] | 4.92 | 
52 | CC(CC(C)(C)C)C1CCCCC1NC(=O)c1sccc1C(F)(F)F (stereo not drawn) [I-c-99] | 5.29 | 
53 | Cc1nn(C)c(F)c1C(=O)NC1CCCCC1CC[Si](C)(C)C (stereo not drawn) [I-k-1] |  | logP [1, 4]: 4.15
54 | Cc1nn(C)c(F)c1C(=O)NC1CCCCC1C(C)C[Si](C)(C)C (stereo not drawn) [I-k-2] |  | logP [1, 4]: 4.51
55 | C[Si](C)(C)CCC1CCCCC1NC(=O)c1ccsc1I (stereo not drawn) [I-k-3] |  | logP ([1]; pH 2.3): 5.13
56 | CC(C[Si](C)(C)C)C1CCCCC1NC(=O)c1ccsc1I (stereo not drawn) [I-k-4] |  | logP ([1]; pH 2.3): 5.44
